Measurements as given in patent US10317393B2, “Alkynyl sugar analogs for labeling and visualization of glycoconjugates in cells” (Academia Sinica, priority 2007, dated 2019).

Legend:
Assay type in all cases: cell-based, human
MCF-7 cells = assay: Confocal microscopy of fluorescently labeled glycoconjugates; conditions: 200 micromolar Fuc or 25 micromolar ManNAc analogs, 3 days; probe 6 or 7
Protocol: (§1) One exemplary implementation of the disclosure provides a method to visualize the localization of glycoconjugates using alkynyl sugar tagging. To visualize the localization of glycoconjugates tagged with alkynyl sugars, adherent cells are grown on slides in the presence or absence of derivatized alkynyl sugars. After a 3-day-incubation, cells attached to the slides are fixed, permeabilized, and labeled with either biotin probe 6 or fluorogenic probe 7 for fluorescent signal analysis with confocal microscopy (FIGS. 4, 5, 10A, 10B and 11). For comparison, samples are also stained with wheat germ agglutinin (WGA, a Golgi marker) and Hoechst 33342 (marker for cell nuclei).
(§2) Human hepatocellular carcinoma cells (Hep3B) or breast adenocarcinoma cells (MCF-7) were seeded onto six-well plates (3×10^5/2 ml per well) containing glass coverslips, and were cultivated in 10% FCS/DMEM or 10% FCS/RPMI medium 1640. […]

Hep3B cells = assay: as above; conditions: 200 micromolar Fuc or 25 micromolar ManNAc analogs, 3 days; probe 6 or 7
Protocol: as §1, §2

Jurkat cells [1] = assay: Cell growth analysis after treatment with sugar analogs (cell numbers counted)
Protocol: FIGS. 1A, 1B, 1C and 1D show analysis of cells labeled with Fuc analogs. […] Jurkat cells were grown in the presence of 200 micromolar each Fuc analog for 3 days before cell numbers were counted. The data represent the percentage of treated cells vs. untreated cells (n=4).
It is also disclosed how treatment with exogenous Fuc analog affects cell growth rate. […] In contrast, the addition of 200 micromolar azido Fuc 2 inhibits cell growth considerably, by 65% when compared with the untreated cells. […] Such toxicity may lead to global change in expression, therefore a nontoxic probe is preferable for accurate probing of glycoconjugate expression.
(§3) Jurkat cells were cultivated (2×10^6/10 ml) in RPMI medium 1640 supplemented with 10% FCS and various concentrations of peracetylated alkynyl sugars 1, 2, or 4 or native sugars 3 or 5, for 1-3 days at 37° C. Cells were then harvested, washed with 0.1% FCS/PBS, and resuspended (10^6 cells) in 100 microliters of click reaction solution (0.1 mM biotin probe 6 or fluorogenic probe 7/0.1 mM Tris-thiazoleamine catalyst/0.1 mM CuSO4/0.5 mM sodium ascorbate, in PBS). The reaction was incubated at room temperature for 30 min, and then the cells were washed twice with 0.1% FCS/PBS. Cells treated with biotin probe 6 were subsequently stained with fluorescein-conjugated streptavidin (0.5 microgram per sample in 50 microliters of 1% FCS/PBS) for 30 min at 4° C., and washed three times with 1% FCS/PBS. Data were acquired by BD LSR II with FACSDiva software, and were analyzed by CellQuestPro software (BD Biosciences). Detection of fluorescent adduct with probe 7 was monitored with a 408 nm laser and a 440/40 bandpass filter for excitation and emission, respectively.

Jurkat cells [2] = assay: Flow cytometry of cell surface labeling after click with biotin azide probe 6 and fluorescein-conjugated streptavidin
Protocol: In another exemplary implementation, a method for labeling fucosylated glycoconjugates at the cell surface is disclosed. In one aspect, Jurkat cells are grown in the presence of derivatized alkynyl Fuc 1. After treatment, cells are subjected to CuAAC (click chemistry) to couple biotinylated azido probe 6 with any alkynyl Fuc-bearing glycoconjugates, and stained with fluorescein-conjugated streptavidin.
Labeling alkynyl Fuc-bearing cell surface glycoconjugates is illustrated in FIGS. 1A, 1B, 1C and 1D. FIGS. 1A, 1B, 1C and 1D show analysis of cells tagged with Fuc analogs analyzed by monitoring fluorescence intensity with flow cytometry after labeling with a biotin azide probe 6 and staining cells with fluorescein-conjugated streptavidin. […] Without being bound by theory, incorporation of the derivatized Fuc analogs into fucosylated glycoconjugates likely occurs via the Fuc salvage pathway.
It is now disclosed in one exemplary implementation of the disclosure that treating cells with derivatized alkynyl ManNAc 4 results in derivatized alkyne-bearing sialyl glycoconjugates. In one aspect of the method, cells are treated with 4 at various concentrations for one to 3 days. Modified sugar analogs and probes used in this disclosure are shown in Scheme 1. Tagging of the cell surface glycoconjugates by derivatized alkynyl ManNAc is illustrated in FIGS. 2A, 2B, 2C and 2D. FIGS. 2A, 2B, 2C and 2D show analysis of cells labeled with ManNAc analogs analyzed by monitoring fluorescence intensity with flow cytometry after clicking on the biotin azide probe 6 and staining cells with fluorescein-conjugated streptavidin. […] Compared with the MFI of controls, there was significant labeling on cells treated with derivatized alkynyl ManNAc 4, even at concentrations as low as 3 micromolar (15-fold increase). […] The optimal concentration of 4 for tagging sialyl glycoconjugates falls between 25 and 50 micromolar.
as §3

With “1,2,3,4-tetraacetyl alkynyl fucose [alkynyl Fuc 1]” the “labeling signal by confocal microscopy” value (MCF-7 cells) was “strong punctate-labeling signal”, the “labeling signal by confocal microscopy” value (Hep3B cells) was “strong punctate-labeling signal” and the “number of cells after 3 days versus cells grown without exogenous Fuc” value (Jurkat cells [1]; 200 micromolar, 3 days) was “similar”. The “toxicity to cells (summary statement)” value (Jurkat cells [1]; at levels required for efficient labeling) was “much less toxic”, the “saturation of incorporation, incubation time” value (Jurkat cells [2]; 200 micromolar) was “one” and the “mean fluorescence intensity (MFI) compared with Fuc treated cells” value (Jurkat cells [2]; 200 micromolar, biotin probe 6/fluorescein-streptavidin) was 3 fold. For the same substance, the “dose dependency of glycan tagging” value (Jurkat cells [2]; 3 days) was “dose dependent increase of fluorescence signal” and the “fluorescence intensity / cell surface signal compared with control sugar-treated cells” value (Jurkat cells [2]; biotin probe 6/fluorescein-streptavidin) was “increased fluorescence intensity”.
